Measured values taken from patent US8192962B2, “Processes for detecting toxic substances” (Daikin Industries, Ltd., priority 2001, dated 2012).

System: Unknown protein yeast genes
Test: DNA chip mRNA expression in yeast, unknown protein yeast genes (Table 1)
Type: cell-based, Saccharomyces cerevisiae S288C
Procedure, shortened: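 S. cerevisiae S288C grown at 25° C in YPD were exposed in log phase for two hours to one toxic chemical at a growth-inhibiting, non-lethal concentration; untreated cells served as control. Poly(A) mRNA was reverse-transcribed with Cy3/Cy5-dUTP and hybridized to a whole-genome yeast DNA chip at 65° C for over 12 hours; values are fluorescence ratios versus untreated.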

N#Cc1c(Cl)c(Cl)c(Cl)c(C#N)c1Cl [(9), 2,4,5,6-tetrachloro-1,3-benzenedicarbonitrile]
The level of expressed mRNA in the presence of chemical substance/The level of expressed mRNA in the absence of chemical substance (yeast gene YAL053W, incubated two hours with chemical substance): 1.4
The level of expressed mRNA in the presence of chemical substance/The level of expressed mRNA in the absence of chemical substance (yeast gene YBL048W): 7.2
The level of expressed mRNA in the presence of chemical substance/The level of expressed mRNA in the absence of chemical substance (yeast gene YBL107C): 1.0
The level of expressed mRNA in the presence of chemical substance/The level of expressed mRNA in the absence of chemical substance (yeast gene YDL072C, incubated two hours with chemical substance): 1.1
The level of expressed mRNA in the presence of chemical substance/The level of expressed mRNA in the absence of chemical substance (yeast gene YDL146W): 0.8
The level of expressed mRNA in the presence of chemical substance/The level of expressed mRNA in the absence of chemical substance (yeast gene YDL204W, incubated two hours with chemical substance): 2.3
The level of expressed mRNA in the presence of chemical substance/The level of expressed mRNA in the absence of chemical substance (yeast gene YDL222C, incubated two hours with chemical substance): 1.9
The level of expressed mRNA in the presence of chemical substance/The level of expressed mRNA in the absence of chemical substance (yeast gene YDR057W): 1.5
The level of expressed mRNA in the presence of chemical substance/The level of expressed mRNA in the absence of chemical substance (yeast gene YDR286C): 0.8
The level of expressed mRNA in the presence of chemical substance/The level of expressed mRNA in the absence of chemical substance (yeast gene YDR330W, incubated two hours with chemical substance): 3.9
The level of expressed mRNA in the presence of chemical substance/The level of expressed mRNA in the absence of chemical substance (yeast gene YDR391C, incubated two hours with chemical substance): 1.5
The level of expressed mRNA in the presence of chemical substance/The level of expressed mRNA in the absence of chemical substance (yeast gene YDR411C, incubated two hours with chemical substance): 0.7
The level of expressed mRNA in the presence of chemical substance/The level of expressed mRNA in the absence of chemical substance (yeast gene YDR511W, incubated two hours with chemical substance): 2.5
The level of expressed mRNA in the presence of chemical substance/The level of expressed mRNA in the absence of chemical substance (yeast gene YDR545W, incubated two hours with chemical substance): 1.8
The level of expressed mRNA in the presence of chemical substance/The level of expressed mRNA in the absence of chemical substance (yeast gene YEL001C, incubated two hours with chemical substance): 2.0
The level of expressed mRNA in the presence of chemical substance/The level of expressed mRNA in the absence of chemical substance (yeast gene YER004W, incubated two hours with chemical substance): 4.5
The level of expressed mRNA in the presence of chemical substance/The level of expressed mRNA in the absence of chemical substance (yeast gene YER035W, incubated two hours with chemical substance): 1.2
The level of expressed mRNA in the presence of chemical substance/The level of expressed mRNA in the absence of chemical substance (yeast gene YER079W, incubated two hours with chemical substance): 5.3
The level of expressed mRNA in the presence of chemical substance/The level of expressed mRNA in the absence of chemical substance (yeast gene YER106W, incubated two hours with chemical substance): 0.4
The level of expressed mRNA in the presence of chemical substance/The level of expressed mRNA in the absence of chemical substance (yeast gene YER158C, incubated two hours with chemical substance): 2.1
The level of expressed mRNA in the presence of chemical substance/The level of expressed mRNA in the absence of chemical substance (yeast gene YER163C, incubated two hours with chemical substance): 5.4
The level of expressed mRNA in the presence of chemical substance/The level of expressed mRNA in the absence of chemical substance (yeast gene YER175C, incubated two hours with chemical substance): 1.9
The level of expressed mRNA in the presence of chemical substance/The level of expressed mRNA in the absence of chemical substance (yeast gene YFL006W, incubated two hours with chemical substance): 3.2
The level of expressed mRNA in the presence of chemical substance/The level of expressed mRNA in the absence of chemical substance (yeast gene YFL010C, incubated two hours with chemical substance): 3.1
The level of expressed mRNA in the presence of chemical substance/The level of expressed mRNA in the absence of chemical substance (yeast gene YFL017C): 0.8
The level of expressed mRNA in the presence of chemical substance/The level of expressed mRNA in the absence of chemical substance (yeast gene YFL024C): 0.5
The level of expressed mRNA in the presence of chemical substance/The level of expressed mRNA in the absence of chemical substance (yeast gene YFL032W, incubated two hours with chemical substance): 0.5
The level of expressed mRNA in the presence of chemical substance/The level of expressed mRNA in the absence of chemical substance (yeast gene YFR008W): 1.5
The level of expressed mRNA in the presence of chemical substance/The level of expressed mRNA in the absence of chemical substance (yeast gene YGL037C, incubated two hours with chemical substance): 2.1
The level of expressed mRNA in the presence of chemical substance/The level of expressed mRNA in the absence of chemical substance (yeast gene YGL047W, incubated two hours with chemical substance): 4.5
The level of expressed mRNA in the presence of chemical substance/The level of expressed mRNA in the absence of chemical substance (yeast gene YGL053W, incubated two hours with chemical substance): 3.3
The level of expressed mRNA in the presence of chemical substance/The level of expressed mRNA in the absence of chemical substance (yeast gene YGL121C): 7.0
The level of expressed mRNA in the presence of chemical substance/The level of expressed mRNA in the absence of chemical substance (yeast gene YGR101W, incubated two hours with chemical substance): 4.0
The level of expressed mRNA in the presence of chemical substance/The level of expressed mRNA in the absence of chemical substance (yeast gene YGR110W): 6.4
The level of expressed mRNA in the presence of chemical substance/The level of expressed mRNA in the absence of chemical substance (yeast gene YGR130C, incubated two hours with chemical substance): 2.0
The level of expressed mRNA in the presence of chemical substance/The level of expressed mRNA in the absence of chemical substance (yeast gene YGR154C, incubated two hours with chemical substance): 25.2
The level of expressed mRNA in the presence of chemical substance/The level of expressed mRNA in the absence of chemical substance (yeast gene YHL042W): 0.8
The level of expressed mRNA in the presence of chemical substance/The level of expressed mRNA in the absence of chemical substance (yeast gene YHR138C, incubated two hours with chemical substance): 5.3
The level of expressed mRNA in the presence of chemical substance/The level of expressed mRNA in the absence of chemical substance (yeast gene YHR199C, incubated two hours with chemical substance): 8.6
The level of expressed mRNA in the presence of chemical substance/The level of expressed mRNA in the absence of chemical substance (yeast gene YIL023C, incubated two hours with chemical substance): 3.5
The level of expressed mRNA in the presence of chemical substance/The level of expressed mRNA in the absence of chemical substance (yeast gene YIL024C, incubated two hours with chemical substance): 2.2
The level of expressed mRNA in the presence of chemical substance/The level of expressed mRNA in the absence of chemical substance (yeast gene YIL041W, incubated two hours with chemical substance): 1.8
The level of expressed mRNA in the presence of chemical substance/The level of expressed mRNA in the absence of chemical substance (yeast gene YIL087C, incubated two hours with chemical substance): 2.4
The level of expressed mRNA in the presence of chemical substance/The level of expressed mRNA in the absence of chemical substance (yeast gene YIL117C, incubated two hours with chemical substance): 2.3
The level of expressed mRNA in the presence of chemical substance/The level of expressed mRNA in the absence of chemical substance (yeast gene YJL057C, incubated two hours with chemical substance): 7.3
The level of expressed mRNA in the presence of chemical substance/The level of expressed mRNA in the absence of chemical substance (yeast gene YJL066C, incubated two hours with chemical substance): 2.0
The level of expressed mRNA in the presence of chemical substance/The level of expressed mRNA in the absence of chemical substance (yeast gene YJL082W, incubated two hours with chemical substance): 1.4
The level of expressed mRNA in the presence of chemical substance/The level of expressed mRNA in the absence of chemical substance (yeast gene YJL108C, incubated two hours with chemical substance): 0.3
The level of expressed mRNA in the presence of chemical substance/The level of expressed mRNA in the absence of chemical substance (yeast gene YJL151C, incubated two hours with chemical substance): 0.5
The level of expressed mRNA in the presence of chemical substance/The level of expressed mRNA in the absence of chemical substance (yeast gene YJL152W, incubated two hours with chemical substance): 0.3
The level of expressed mRNA in the presence of chemical substance/The level of expressed mRNA in the absence of chemical substance (yeast gene YJL161W, incubated two hours with chemical substance): 3.1
The level of expressed mRNA in the presence of chemical substance/The level of expressed mRNA in the absence of chemical substance (yeast gene YJL171C, incubated two hours with chemical substance): 1.0
The level of expressed mRNA in the presence of chemical substance/The level of expressed mRNA in the absence of chemical substance (yeast gene YJR008W, incubated two hours with chemical substance): 1.8
The level of expressed mRNA in the presence of chemical substance/The level of expressed mRNA in the absence of chemical substance (yeast gene YKL065C): 3.1
The level of expressed mRNA in the presence of chemical substance/The level of expressed mRNA in the absence of chemical substance (yeast gene YKL071W): 162.2
The level of expressed mRNA in the presence of chemical substance/The level of expressed mRNA in the absence of chemical substance (yeast gene YKL086W, incubated two hours with chemical substance): 8.2
The level of expressed mRNA in the presence of chemical substance/The level of expressed mRNA in the absence of chemical substance (yeast gene YKL147C): 1.0
The level of expressed mRNA in the presence of chemical substance/The level of expressed mRNA in the absence of chemical substance (yeast gene YKL151C, incubated two hours with chemical substance): 3.3
The level of expressed mRNA in the presence of chemical substance/The level of expressed mRNA in the absence of chemical substance (yeast gene YKL153W, incubated two hours with chemical substance): 0.8
